Values after ≈ are worked out from the molar mass of the structure shown. Active and inactive are the calls of the source. The rule behind the calls is not given here.
How the values were obtained:
[1] = In vitro anticancer activity against human epidermoid nasopharyngeal tumor cell line (KB); type: functional; conditions: for EC50: read-out: ED50 (the source's name)
[2] = system: HCT-8; test: In vitro anticancer activity against human ileocecal tumor cell line (HCT-8); type: functional; conditions: for EC50: read-out: ED50 (the source's name)
[3] = system: MCF7; test: In vitro anticancer activity against human breast (MCF-7) cell line; type: functional; conditions: for EC50: read-out: ED50 (the source's name)
[4] = system: PC-3; test: In vitro anticancer activity against human prostate (PC-3) cell line; type: functional; conditions: for EC50: read-out: ED50 (the source's name)
[5] = system: KB-VIN; test: In vitro anticancer activity against human vincristine-resistant tumor cell line (KB-VIN); conditions: read-out: ED50 (the source's name)
[6] = system: KB-VIN; test: as above
[7] = system: SK-MEL-2; test: In vitro anticancer activity against human melanoma cancer (SK-MEL-2) cell line; not active at 20 ug/mL; type: functional, cell-based
[8] = In vitro anticancer activity against human ovarian cancer ([…]) cell line; type: functional; conditions: read-out: ED50 (the source's name)
[9] = system: U-87 MG; test: In vitro anticancer activity against human glioblastoma tumor cell line (U-87-MG); type: functional, U-87MG ATCC; conditions: for EC50: read-out: ED50 (the source's name)
[10] = system: A549; test: In vitro anticancer activity against human lung (A549) cell line; type: functional; conditions: for EC50: read-out: ED50 (the source's name)
[11] = system: SK-MEL-2; test: In vitro anticancer activity against human melanoma cancer (SK-MEL-2) cell line; type: functional

EC50 [1] [µg/mL] | EC50 [2] [µg/mL] | EC50 [3] [µg/mL] | EC50 [4] [µg/mL] | EC50 [5] [µg/mL] | EC50 [8] [µg/mL] | EC50 [9] [µg/mL] | EC50 [10] [µg/mL] | EC50 ([11]; read-out: ED50 (the source's name)) [µg/mL] | Compound | Inhibition [1] [%] | Inhibition [2] [%] | Inhibition [3] [%] | Inhibition [4] [%] | Inhibition [6] [%] | ED50 [7] | Inhibition [9] [%] | Inhibition [10] [%] | Inhibition [11] [%]
> 20 | > 20 | > 20 | > 20 | > 20 | 20 (≈ 85 µM) | > 20 | > 20 |  | COC1=C(C)Oc2cc(OC)ccc2N1C=O | 22 | 39 | 49 | 37 | 20 | inactive | 19 | 36 | 
4 (≈ 18.1 µM) | 3.6 (≈ 16.3 µM) | 4 (≈ 18.1 µM) | 4.7 (≈ 21.2 µM) | 3.5 (≈ 15.8 µM) | 2.4 (≈ 10.8 µM) | > 5 | 3.6 (≈ 16.3 µM) | > 5 | COc1ccc2c(c1)OC(C)=C(O)N2C=O |  |  |  |  |  |  | 36 |  | 30

— ChEMBL document CHEMBL1136088, “Antitumor agents. Part 218: Cappamensin A, a new In vitro anticancer principle, from Capparis sikkimensis” (2003)
